Laboratory results taken from article PMC12030426, “Translational Pharmacokinetic-Pharmacodynamic Modeling of a Novel Oral Dihydroorotate Dehydrogenase (DHODH) Inhibitor, HOSU-53 (JBZ-001)” (Pharmaceutics, 2025).
Entries after “also recorded” stand apart in the source; their conditions may differ.

What was measured:
[1] = noncompartmental PK in mice; type: in vivo
[2] = noncompartmental PK in rats; type: in vivo
Description: (§1) Non-clinical PK of HOSU-53 has been studied and analyzed after single and multiple doses with noncompartmental analysis (NCA). […] F was similar between the two species, with mean values of approximately 60% and 50% in rats and dogs, respectively.

[3] = noncompartmental PK in dogs; type: in vivo
Description: as §1

plasma DHO [4] = assay: correlation of plasma DHO exposure with efficacy, tolerability and toxicity in repeat dose studies; type: in vivo, rats, dogs, and tumor-bearing mice; conditions: based on preclinical experiments
Procedure: These GI toxicities are consistent with the high proliferative demand of intestinal epithelial cells, which rely on pyrimidine availability for DNA synthesis and repair. The No Observed Adverse Effect Levels (NOAELs) from the rat and dog GLP toxicity studies were then determined to be one dose level lower, which are 2.5 mg/kg (PO, QD) and 0.6 mg/kg (PO, QD), respectively. Based on repeat dose studies in rats, dogs, and tumor-bearing mice, efficacy, tolerability, and toxicity can be correlated with levels of the PD biomarker DHO in plasma.

population PK model, dog = type: in vivo
Procedure: (§2) Population PK analyses were performed using nonlinear mixed-effects modeling implemented in Monolix software (Monolix Suite 2024R1, Antony, France). This approach utilizes the stochastic approximation of the expectation-maximization (SAEM) algorithm coupled with a Markov chain Monte Carlo (MCMC) method to optimize the likelihood. One- and two-compartment PK models incorporating zero- and first-order absorption with linear elimination were evaluated. Interindividual variability (IIV) in PK parameters was assumed to follow a log-normal distribution, except for bioavailability (F), which was modeled using a logit-normal distribution. An exponential model was applied, as described by the following equation: θi=θp×e^ηi where θi is the model predicted PK parameter for the ith animal, θp is the typical population PK parameter, and ηi is the random variable of normal distribution with mean zero and variance ω^2 .
(§3) Residual or random unexplained variability was evaluated using additive, proportional, and combined error models. For each model, several criteria were assessed, including the objective function value (OFV), Akaike Information Criterion (AIC), Bayesian Information Criterion (BIC), corrected Bayesian Information Criterion (BICc), and the precision of parameter estimates, expressed as residual standard errors.
During the development of the PK model for dogs, a two-compartment model was first constructed using IV data alone. […] This approach provided reasonable estimates for F and Ka, with acceptable RSE values (Table 3). […] The GOF plots for the final PK models of dog and mouse are presented in Figure 1 and Supplementary Figure S1, respectively.

plasma DHO [5] = assay: population PD model (indirect turnover, plasma DHO), dog; type: in vivo
Procedure: (§4) To develop the PK/PD models, a sequential approach was tested for dog data, involving the initial construction of the PK model, fixing the PK parameters with population estimated thetas and eta variances, and then estimating the PD parameters. For mouse and rat data, a simultaneous approach was employed, estimating PK and PD parameters concurrently, assuming log-normal distribution for both. To account for the delay in PD response that results from the inhibition of DHODH, the factor controlling the dissipation of the response, various modeling approaches were employed. One approach involved using an effect compartment model with an equilibrium half-life parameter ( ke0 ) to characterize the delay,
(§5) The final PK/PD model for both species was an indirect turnover model with degradation inhibition. The parameters for the final dog and mouse PK/PD models are presented in Table 3 and Supplementary Table S3, respectively.

[6] = population PK model, mouse; type: in vivo
Procedure: as §2, §3
The final structural PK models for both mouse and dog data were two-compartment disposition models with first-order absorption and linear elimination. We ultimately chose to exclude rat data from the population modeling effort, as described below in this section. The parameters for the final dog and mouse PK models are presented in Table 3 and Supplementary Table S3, respectively. All parameters were estimated with good precision, as indicated by the %RSE of the estimates. Proportional and combined error models were selected for the mouse and dog data, respectively.

plasma DHO [7] = assay: population PD model (indirect turnover, plasma DHO), mouse; type: in vivo
Procedure: as §4, §5

pKa = type: physicochemical; conditions: experimental data
Procedure: (§6) PBPK models were developed using PK-Sim v11.0 in rats and beagle dogs, and each was used to predict data in the other species, including mice. A base model was parameterized using lipophilicity, plasma protein binding, thermodynamic solubility, and pKa measured from in vitro studies. Half-life of HOSU-53 measured in beagle cryo-preserved hepatocytes was used along with hepatocyte incubation density within the In Vitro to In Vivo Extrapolation (IVIVE) tools in PK-Sim to estimate metabolic clearance in vivo [25]. Renal clearance of unbound plasma HOSU-53 was assumed to be driven solely by glomerular filtration rate (GFR). Various methods were used to calculate partition coefficients and cellular permeabilities in PK-Sim. PK predictions generated for each combination of calculation methods were compared to the mean observed IV profile, and the methods that best matched the observed data were selected. Ultimately, partition coefficients were calculated using the Rodgers and Rowland method, and cellular permeabilities were calculated using the charge-dependent Schmitt method. PK following oral administration of HOSU-53 was used to identify parameter values for intestinal permeability for the sodium and lysine salt forms administered in deionized (DI) water. […]

thermodynamic solubility = type: physicochemical; conditions: pH 6.5; experimental data
Procedure: as §6

[8] = in vitro hepatic stability assay scaled by IVIVE, rat; type: in vitro ADME; conditions: scaled from in vitro hepatic stability assay
Procedure: as §6

human DHODH = human DHODH (Homo sapiens, UniProt Q02127); set-up: method as in PMID 38646934; conditions: cell-free; read-out: IC50 in cell-free human DHODH inhibition assay; cited from earlier work
PXR = tested on: PXR; set-up: method as in PMID 38646934; conditions: cited from earlier work
hERG ion channel = tested on: hERG ion channel; set-up: method as in PMID 38646934; conditions: cited from earlier work
[9] = set-up: method as in PMID 38646934; conditions: cited from earlier work
[10] = set-up: method as in PMID 38646934; conditions: cited from earlier work; remark: listed apart in the source
[11] = tested on: MOLM-13 cell line–derived xenograft; set-up: method as in PMID 38646934; conditions: combined with other front-line therapies; cited from earlier work
PPARγ = conditions: cited from earlier work
[12] = 28-day GLP repeat-dose toxicity study in rats
Procedure: A series of PK and PD studies was carried out using a range of single and repeat dosing regimens in rats, exploring variations in formulation and dosing schedules. The initial experiment evaluated the PK/PD profile following a single dose of 10 mg/kg PO and 3 mg/kg IV using 40% HPBCD. Building on the single-dose results, repeat dosing was investigated at 1 (both sexes), 3 (both sexes), 6 (females), and 10 (males) mg/kg (PO, QD) and 30 (both sexes) mg/kg (PO, BIWK) regimen in 40% HPBCD formulation. To extend the findings into a disease-relevant context, repeat dosing was evaluated for 14 days in a MOLM-13 xenograft model in the Sprague Dawley Rag2−/− Il2rg−/− (SRG) male rats, where doses of 1, 3, and 10 mg/kg (PO, QD) were administered, alongside 30 mg/kg biweekly (PO, BIWK).

[13] = 28-day GLP repeat-dose toxicity study in dogs
Procedure: The PK/PD characterization of HOSU-53 in beagle dogs was conducted across several studies. An initial single-dose PK/PD evaluation was carried out with male dogs receiving HOSU-53 (10 mg/kg, PO; 3 mg/kg, IV) in 40% HPBCD. Then, repeat-dose PK/PD over 7 days was assessed in male and female dogs with doses of 0.3, 1, and 3 mg/kg (PO, QD) in deionized water. […] Additional GLP toxicokinetic and toxicodynamic evaluations were performed, where dogs were dosed at 0.2, 0.6, and 1 mg/kg (PO, QD) for 28 days followed by a 14-day recovery period (Details in Supplementary Table S1).

human DHODH, sequence (Q02127 whole entry): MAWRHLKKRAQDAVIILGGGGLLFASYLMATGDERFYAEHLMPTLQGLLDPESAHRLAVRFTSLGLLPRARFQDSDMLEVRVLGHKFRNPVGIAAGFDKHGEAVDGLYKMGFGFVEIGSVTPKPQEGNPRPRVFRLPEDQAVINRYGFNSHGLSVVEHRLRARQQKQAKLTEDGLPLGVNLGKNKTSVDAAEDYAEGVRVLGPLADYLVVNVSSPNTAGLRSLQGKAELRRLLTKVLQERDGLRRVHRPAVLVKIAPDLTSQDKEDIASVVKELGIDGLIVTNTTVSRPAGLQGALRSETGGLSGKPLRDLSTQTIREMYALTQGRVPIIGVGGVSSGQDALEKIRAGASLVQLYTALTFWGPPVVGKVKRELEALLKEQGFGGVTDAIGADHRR

In the case of CCCCOc1cccc(-c2ccc(-c3cc(C(=O)O)c4cc(F)ccc4n3)cc2)c1 [HOSU-53], the “mean T1/2” value ([1]; NCA) is reported as 30 h, the “dose proportionality of plasma levels” value ([1]; repeated oral dosing, higher doses, dose range 4–30 mg/kg) is reported as “less-than-dose-proportional manner” and the F ([1]; single IV 3 mg/kg and oral 10 mg/kg, NCA) is reported as 86%. The F ([2]; mean, NCA) was “approximately 60%”, the “dose proportionality of plasma levels” value ([2]; repeated oral dosing, higher doses, dose range 3–10 mg/kg) was “less-than-dose-proportional manner” and the F ([3]; mean, NCA) was ~50%. For the same molecule, the “dose proportionality of plasma levels” value ([3]; repeated oral dosing, dose range 0.3–3 mg/kg) was “dose-proportional manner”, the “AUCtau,ss of DHO at which optimal efficacy is expected” value (plasma DHO [4]) was “around 300 µM·h” and the “F (%)” value (population PK model, dog; bootstrap point estimate) was 0.67 fraction. The Ka (population PK model, dog; bootstrap point estimate) was 1.55 h⁻¹, the “F (%)” value (population PK model, dog; model estimate (RSE%)) was 0.67 (2.8) % and the Ka (population PK model, dog; model estimate (RSE%)) was 1.53 (12.6) /h. The CL/F (population PK model, dog; model estimate, fixed) was 150 Fix mL/h, the Q (population PK model, dog; model estimate, fixed) was 400 Fix mL/h and the V1 (population PK model, dog; model estimate, fixed) was 980 Fix mL. The V2 (population PK model, dog; model estimate, fixed) was 490 Fix mL, the IC50 (plasma DHO [5]; bootstrap point estimate) was 0.08 µM and the Kout (plasma DHO [5]; bootstrap point estimate) was 70 h⁻¹. For the same molecule, the gamma (plasma DHO [5]; bootstrap point estimate) was 1.86, the Kout (plasma DHO [5]; model estimate (RSE%)) was 52 (11.4) /h and the gamma (plasma DHO [5]; model estimate (RSE%)) was 1.9 (1.6). For the same molecule, the IC50 (plasma DHO [5]; plasma HOSU-53 concentration, inhibition of DHO degradation, model estimate (RSE%)) was 0.1 µM, the CL/F ([6]; bootstrap point estimate) was 0.07 mL/h and the “F (%)” value ([6]; bootstrap point estimate) was 54%. It also gave a Ka ([6]; bootstrap point estimate) of 1.2 h⁻¹, a Q ([6]; bootstrap point estimate) of 1.6 mL/h and a V1 ([6]; bootstrap point estimate) of 1.3 mL. The V2 ([6]; bootstrap point estimate) was 1.1 mL, the CL/F ([6]; model estimate (RSE %)) was 0.07 (5.0) mL/h and the “F (%)” value ([6]; model estimate (RSE %)) was 0.53 (0.02) %. For the same molecule, the Ka ([6]; model estimate (RSE %)) was 1.0 (0.02) /h, the Q ([6]; model estimate (RSE %)) was 1.6 (1.7) mL/h and the V1 ([6]; model estimate (RSE %)) was 1.2 (8.7) mL. The V2 ([6]; model estimate (RSE %)) was 1.2 (5.3) mL, the IC50 (plasma DHO [7]; bootstrap point estimate) was 1.61 µM and the Kout (plasma DHO [7]; bootstrap point estimate) was 127 h⁻¹. The gamma (plasma DHO [7]; bootstrap point estimate) was 1.63, the Kout (plasma DHO [7]; model estimate (RSE %)) was 155 (12.7) /h and the gamma (plasma DHO [7]; model estimate (RSE %)) was 1.71 (0.1). The IC50 (plasma DHO [7]; plasma HOSU-53 concentration, inhibition of DHO degradation, model estimate (RSE %)) was 1.55 µM, the “pKa (Acid)” value (pKa) was 3.05 (Acid) and the “pKa (Base)” value (pKa) was 1.19 (Base). The Solubility (thermodynamic solubility) was 18.8 μg/mL (pH 6.5), the “Specific Clearance” value [8] was 7.29 min⁻¹ and the IC50 (human DHODH) was 0.00095 µM. The PXR induction (PXR) was “does not induce PXR”, the “hERG ion channel inhibition” value (hERG ion channel) was “does not induce PXR or inhibit the hERG ion channel” and the Ames mutagenicity [9] was “negative”. For the same molecule, the micronucleus assay [10] was “negative”, the survival [11] was “prolonged survival benefits” and the “PPARγ agonism potency, fold less than potency against MOLM-13 AML cells in cell viability assays” value (PPARγ) was 1500 ×. The adverse effects ([12]; male and female rats, 5 mg/kg PO, QD) was “decreased lymphoid cellularity in the thymus, mild-to-moderate decreases in lymphocyte counts, and lower thymus weights”, the “HNSTD or STD10” value ([12]; rats) was 5 mg/kg/day and the NOAEL ([12]; rats, PO, QD, 28-day GLP) was 2.5 mg/kg. For the same molecule, the “maximum DHO concentration with no toxicity” value ([12]; rats, preclinical toxicokinetic data) was ~ 2870 ng/mL, the “human equivalent dose (HED)” value ([12]; scaled by body surface area from rats (divided by 6.2)) was 0.8 mg/kg/day and the survival ([13]; all dogs, 28-day GLP study) was “survived until scheduled euthanasia”. For the same molecule, the “HNSTD or STD10” value ([13]; dogs) was 0.6 mg/kg/day, the NOAEL ([13]; dogs, PO, QD, 28-day GLP) was 0.6 mg/kg and the “maximum DHO concentration with no toxicity” value ([13]; dogs, preclinical toxicokinetic data) was ~ 5850 ng/mL. The “heart rate and RR interval” value ([13]; female dogs, 1 mg/kg PO, QD, 1–2 h postdosing, weeks 1 and 4) was “lower heart rate and longer RR interval duration”, the adverse effects ([13]; male and female dogs, 1 mg/kg PO, QD, 1 mg/kg) was “decreased food consumption, lower body weights, and adverse intestinal microscopic findings related to mucosal epithelial cell loss; also recorded: decreased food consumption, lower body weights, and adverse intestinal (colon, ileum, and/or jejunum) microscopic findings related to mucosal epithelial cell loss” and the “human equivalent dose (HED)” value ([13]; scaled by body surface area from dogs (divided by 1.8)) was 0.3 mg/kg/day.
